Source: publication PMC6753678, “Fueling Open Innovation for Malaria Transmission-Blocking Drugs: Hundreds of Molecules Targeting Early Parasite Mosquito Stages” (Frontiers in Microbiology, 2019)
Read-outs that look alike come from different tables or passages of the source.

What was measured:
[1] = test system: P. falciparum late stage (stages IV-V) gametocytes; test: P. falciparum late stage gametocyte ATP depletion assay (Pf GC-ATP); settings: 1: YES; 0: NO
[2] = test system: P. falciparum female gametocytes; parameters: method as in Miguel-Blanco et al 2017; settings: TCAMS screen comparison; ref Miguel-Blanco et al 2017; read-out: Pf FGAA IC50; cited from earlier work
[3] = test system: P. falciparum female gametocytes; test: P. falciparum female gametogenesis assay (Pf FGAA); settings: 1: YES; 0: NO
HepG2 cells [4] = settings: cited from earlier work
HepG2 cells [5] = test: HepG2 cytotoxicity assay; settings: HepG2 cytotoxicity unified across the three screens
Method in brief: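 Percent inhibition derived from fluorescent viability readout, normalised to DMSO (negative) and 50 μM doxorubicin (positive). Compound incubation lasted 48 h at 37°C, 5% CO2, with 2,500 HepG2 cells/well in MEM plus 10% FBS and 1% NEAA.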

[6] = test system: P. falciparum late stage (stages IV-V) gametocytes; parameters: method as in Almela et al 2016; settings: TCAMS screen comparison; ref Almela et al 2016; read-out: Pf GCT ATP IC50; cited from earlier work
[7] = value reported with the Pf FGAA screen, ref Miguel-Blanco et al 2017
[8] = value reported with the Pf GCT ATP screen, ref Almela et al 2016

| SMILES | Is compound selective in assay? Pf GC-ATP active? [1] | IC50 [2] [nM] | Is compound selective in assay? Pf FGAA active? [3] | HepG2 cytoxicity (HepG2 cells [4]; [7]) [µM] | HepG2 cytoxicity (HepG2 cells [4]; [8]) [µM] | Unified cytotox (HepG2 cells [5]) [µM] | IC50 [6] [nM] |
| --- | --- | --- | --- | --- | --- | --- | --- |
| Cc1n[nH]c2ccc(-c3ccc4nccc(N5CCC(N)CC5)c4c3)cc12.Cl [TCMDC-134315] | 1 (1: YES) | 2450 | 0 (0: NO) | 6.88 | 11.66 | 9.27 | 380 |
| CC(C)c1ccc(CN2CCC(CNC(=O)c3cc(-c4cccc(F)c4)cs3)C2)cc1.O=C(O)C(F)(F)F (centres unmarked) [TCMDC-134437] | 1 (1: YES) | 1370 | 0 (0: NO) | 6.24 | 5.3 | 5.77 | 450 |
| CC(C)(C)c1ccc(CN2CCC(CNC(=O)c3cc(-c4ccccc4C(F)(F)F)cs3)C2)cc1.O=C(O)C(F)(F)F (centres unmarked) [TCMDC-134441] | 1 (1: YES) | 690 | 1 (1: YES) | 9.77 | 6.4 | 8.09 | 310 |
| CC(C)(C)c1ccc(CN2CCC(CNC(=O)c3cc(-c4cccc(C(F)(F)F)c4)cs3)C2)cc1.O=C(O)C(F)(F)F (centres unmarked) [TCMDC-134442] | 1 (1: YES) | 950 | 0 (0: NO) | 6.39 | 4.9 | 5.65 | 420 |
| CC(C)(C)c1ccc(CN2CCC(CNC(=O)c3cc(-c4ccccc4F)cs3)C2)cc1.O=C(O)C(F)(F)F (centres unmarked) [TCMDC-134443] | 1 (1: YES) | 830 | 1 (1: YES) | 9.30 | 7.4 | 8.35 | 340 |
| CC(C)(C)c1ccc(CN2CCC(CNC(=O)c3cc(-c4ccccc4Cl)cs3)C2)cc1.O=C(O)C(F)(F)F (centres unmarked) [TCMDC-134445] | 1 (1: YES) | 1010 | 0 (0: NO) | 6.17 | 8.3 | 7.23 | 690 |
| CC(C)(C)c1ccc(CN2CCC(CNC(=O)c3cc(-c4cccc(Cl)c4)cs3)C2)cc1.O=C(O)C(F)(F)F (centres unmarked) [TCMDC-134446] | 1 (1: YES) | 990 | 0 (0: NO) | 7.42 | 11.3 | 9.36 | 610 |
| COc1cccc(-c2csc(C(=O)NCC3CCN(Cc4ccc(C(C)(C)C)cc4)C3)c2)c1.O=C(O)C(F)(F)F (centres unmarked) [TCMDC-134447] | 1 (1: YES) | 650 | 1 (1: YES) | 5.78 | 9.5 | 7.64 | 230 |
| COc1cccc(OC)c1CN1CCC(N(C)CCCCCCCCN2CCC(OC(=O)Nc3ccccc3-c3ccccc3)CC2)CC1 [TCMDC-134684] | 0 (0: NO) | 2260 | 0 (0: NO) | 1.93 | 3.4 | 2.66 | 1040 |
| COc1cccc(OC)c1CN1CCC(N(C)CCCCCCCCCN2CCC(OC(=O)Nc3ccccc3-c3ccccc3)CC2)CC1 [TCMDC-134690] | 0 (0: NO) | 1310 | 0 (0: NO) | 1.91 | <1.56 | 1.91 | 260 |
| Fc1ccc(OC2CN(c3nccc(NCc4ccccc4Cl)n3)C2)cc1 [TCMDC-135110] | 1 (1: YES) | 5220 | 1 (1: YES) | 83.45 | >25 | 83.45 | 2510 |
| CCn1c(Sc2ccc([N+](=O)[O-])c(C#N)c2)nnc1-c1cccc(Cl)c1 [TCMDC-135234] | 0 (0: NO) | 1340 | 1 (1: YES) | 18.80 | >25 | 18.80 | 3040 |
| CCn1c(-c2nonc2N)nc2c(-c3cc4ccccc4s3)ncc(C(=O)N3CCC(N)C3)c21.O=C(O)C(F)(F)F (centres unmarked) [TCMDC-135281] | 0 (0: NO) | 450 | 0 (0: NO) | 1.00 | 3.5 | 2.25 | 350 |
| CNCCNc1nccc(N2CCc3ncnc(Nc4ccc(OCc5cccc(F)c5)c(Cl)c4)c3C2)n1 [TCMDC-135478] | 0 (0: NO) | 1670 | 0 (0: NO) | 5.62 | 7.16 | 6.39 | 670 |
| COc1ccc(-c2cnc3[nH]cc(-c4ccncc4)c3c2)cc1OC [TCMDC-135853] | 0 (0: NO) | 2260 | 0 (0: NO) | 11.79 | 3.1 | 7.44 | 900 |
| CCn1c(-c2nonc2N)nc2c(-c3cccc(NC(=O)Nc4cccc(Cl)c4)c3)ncc(OCCCN)c21.O=C(O)C(F)(F)F [TCMDC-136193] | 1 (1: YES) | 1180 | 1 (1: YES) | 80.36 | 14.5 | 47.43 | 2170 |
| Cl.c1ccc2c(C3CCN(CCCCOc4ccc5c(c4)CCN(CC4CC4)CC5)CC3)c[nH]c2c1 [TCMDC-136244] | 0 (0: NO) | 1150 | 0 (0: NO) | 5.15 | 6.81 | 5.98 | 710 |
| COc1ccc(Nc2nccc(-c3ccc4ccnc(NCCCCN)c4c3)n2)cc1 [TCMDC-136642] | 1 (1: YES) | 1510 | 0 (0: NO) | 14.29 | >25 | 14.29 | 330 |
| Cc1cc(OCCN2CCCCC2)ccc1NC(=O)c1cccc2c(=O)n(Cc3ccc(Cl)cc3)cnc12 [TCMDC-136727] | 0 (0: NO) | 1400 | 0 (0: NO) | 4.17 | 4.73 | 4.45 | 950 |
| CC(C)NCc1ccc(OCc2cccc(COc3ccc(CNC(C)C)cc3I)c2)c(I)c1.Cl [TCMDC-137259] | 1 (1: YES) | 1320 | 0 (0: NO) | 1.64 | 4.9 | 3.27 | 210 |
